The record followed here is ChEMBL document CHEMBL1145274, “The evaluation of 2,8-disubstituted benzoxazinone derivatives as anti-inflammatory and anti-platelet aggregation agents” (Bioorg Med Chem Lett, 2005).

Assay type in all cases: functional, organism-based
Experiment [1] is filed under the species Homo sapiens. Kind of experiment: Inhibitory concentration for anti-platelet aggregation induced by collagen at 10 ug/mL concentration.
The species named for experiment [2] is Homo sapiens. Kind of experiment: Inhibitory concentration for anti-platelet aggregation induced by platelet activating factor at 2 ng/mL concentration.
The species entered for experiment [3] is Homo sapiens. Put plainly: Inhibitory concentration against superoxide anion (O2-) generation in human neutrophils induced by FMLP (formyl-Met-Leu-Phe) and […](phorbol myristate acetate).
The species named for experiment [4] is Homo sapiens. Put plainly: Inhibitory concentration for anti-platelet aggregation induced by arachidonic acid at 100 uM concentration.
Experiment [5] is filed under the species Homo sapiens. Kind of experiment: Inhibitory concentration for anti-platelet aggregation induced by thrombin at 0.1 U/mL concentration.
Experiment [6] is filed under the species Homo sapiens. Put plainly: Inhibitory concentration against neutrophil elastase release induced by FMLP (formyl-Met-Leu-Phe).

Turning to `COc1cccc2c(=O)oc(-c3ccc(Br)cc3)nc12`, the IC50 (as a rule, the concentration that inhibits the measured activity by half) in experiment [1] is above 100 µM; in experiment [2] it was above 100 µM; in experiment [3], above 40 µM; in experiment [4] it was above 100 µM; in experiment [5], above 100 µM.

Regarding `COc1cccc2c(=O)oc(-c3ccccc3F)nc12`, the IC50 is 39.4 µM in experiment [1]; above 100 µM in experiment [2]; 9.74 µM in experiment [3]; 8 µM in experiment [4]; 7.2 µM in experiment [5].

Turning to `COc1cccc2c(=O)oc(-c3ccccc3Cl)nc12`, the IC50 in experiment [1] is 35.5 µM; in experiment [2] it was above 100 µM; in experiment [3], 14.7 µM; in experiment [4], 11.8 µM; in experiment [5], 6.9 µM.

On to `COc1ccccc1-c1nc2c(OC)cccc2c(=O)o1`, for which the IC50 in experiment [1] is above 100 µM; in experiment [2], above 100 µM; in experiment [3] it was 14 µM; in experiment [6] it was 1.59 µM; in experiment [4] it was above 100 µM; in experiment [5], above 100 µM.

As for `COc1ccccc1-c1nc2c(C)cccc2c(=O)o1`, the concentration for half-maximal inhibition (IC50) was 54.7 µM in experiment [1]; above 100 µM in experiment [2]; 22.7 µM in experiment [3]; 7.23 µM in experiment [6]; 36.6 µM in experiment [4]; above 100 µM in experiment [5].

`Cc1cccc2c(=O)oc(-c3ccccc3F)nc12`: the IC50 is 11.9 µM in experiment [1]; above 100 µM in experiment [2]; 10.8 µM in experiment [3]; above 40 µM in experiment [6]; 6.8 µM in experiment [4]; 34.3 µM in experiment [5].

On to `O=c1oc(-c2ccccc2Cl)nc2c(Cl)cccc12`, for which the IC50 in experiment [1] came out at 30 µM; in experiment [2], 69.5 µM; in experiment [3], 8.66 µM; in experiment [6], 1.89 µM; in experiment [4], 6.1 µM; in experiment [5], 6.6 µM.

As to `O=c1oc(-c2ccccc2F)nc2c(Cl)cccc12`, the IC50 in experiment [1] was 49.1 µM; in experiment [2], 87.4 µM; in experiment [3] it was above 40 µM; in experiment [6], 6.03 µM; in experiment [4], 12.7 µM; in experiment [5] it was 14.7 µM.

With `COc1ccccc1-c1nc2c(Cl)cccc2c(=O)o1`, the IC50 in experiment [1] came to 44.9 µM; in experiment [2], 70.3 µM; in experiment [3], 10 µM; in experiment [6] it was 1.91 µM; in experiment [4], 25.4 µM; in experiment [5], 14.8 µM.

Regarding `Cc1cccc2c(=O)oc(-c3ccccc3Cl)nc12`, the IC50 in experiment [1] is 12.6 µM; in experiment [2] it was above 100 µM; in experiment [3] it was 29.9 µM; in experiment [6] it was above 40 µM; in experiment [4], 4.3 µM; in experiment [5], 11.9 µM.

On to `O=c1oc(-c2ccccc2Br)nc2c(Cl)cccc12`, for which the IC50 in experiment [1] is 47 µM; in experiment [2], 87.5 µM; in experiment [3], 6.56 µM; in experiment [6], 1.69 µM; in experiment [4] it was 10.2 µM; in experiment [5] it was 7.1 µM.

As for `COc1cccc2c(=O)oc(-c3ccccc3C)nc12`, the IC50 in experiment [1] is 34.3 µM; in experiment [2], above 100 µM; in experiment [3] it was 11.4 µM; in experiment [6], 10.6 µM; in experiment [4], 8.4 µM; in experiment [5] it was 67 µM.

On to `Cc1ccccc1-c1nc2c(C)cccc2c(=O)o1`, for which the IC50 was above 100 µM in experiment [1]; above 100 µM in experiment [2]; 23.6 µM in experiment [3]; above 40 µM in experiment [6]; 19.3 µM in experiment [4]; above 100 µM in experiment [5].

On to `Cc1cccc2c(=O)oc(-c3ccccc3Br)nc12`, for which the IC50 in experiment [1] was 49.8 µM; in experiment [2], 89.3 µM; in experiment [3] it was 30.2 µM; in experiment [6] it was above 40 µM; in experiment [4] it was 5.8 µM; in experiment [5] it was 18.9 µM.

Take `CCc1nc2c(OC)cccc2c(=O)o1`: the IC50 in experiment [1] is above 100 µM; in experiment [2] it was above 40 µM; in experiment [3], 100 µM; in experiment [6] it was 100 µM; in experiment [4], above 100 µM; in experiment [5], above 40 µM.

Take `COc1cccc2c(=O)oc(C)nc12`: the half-inhibitory concentration (IC50) in experiment [1] is above 100 µM; in experiment [2] it was above 100 µM; in experiment [3], above 40 µM; in experiment [6] it was above 40 µM; in experiment [4], above 100 µM; in experiment [5], above 100 µM.

For `Cc1ccccc1-c1nc2c(Cl)cccc2c(=O)o1`, the 50% inhibitory concentration (IC50) in experiment [1] was 63.3 µM; in experiment [2] it was 91.9 µM; in experiment [3], 17.5 µM; in experiment [6], above 40 µM; in experiment [4], 13.8 µM; in experiment [5] it was 36.3 µM.

`COc1cccc2c(=O)oc(-c3ccccc3Br)nc12`: the IC50 in experiment [1] was 21.1 µM; in experiment [2] it was above 100 µM; in experiment [3], 16.7 µM; in experiment [4] it was 13 µM; in experiment [5], 4.4 µM.

As to `COc1cccc2c(=O)oc(-c3ccc(Cl)cc3)nc12`, the IC50 in experiment [1] was above 100 µM; in experiment [2], above 100 µM; in experiment [3] it was above 40 µM; in experiment [4], above 100 µM; in experiment [5], above 100 µM.

As for `COc1cccc2c(=O)oc(-c3ccccc3)nc12`, the IC50 was 33.8 µM in experiment [1]; above 100 µM in experiment [2]; above 40 µM in experiment [3]; above 40 µM in experiment [6]; 47.3 µM in experiment [4]; 48.2 µM in experiment [5].

For the compound `CCCCc1nc2c(OC)cccc2c(=O)o1`, the IC50 in experiment [1] is above 100 µM; in experiment [2], above 100 µM; in experiment [3] it was above 40 µM; in experiment [6] it was above 40 µM; in experiment [4], above 100 µM; in experiment [5], above 100 µM.

For the compound `CC(=O)Oc1ccccc1C(=O)O` [ASPIRIN], the IC50 is 34.9 µM in experiment [1], above 100 µM in experiment [2], 34.6 µM in experiment [4] and above 100 µM in experiment [5].

For the compound `c1ccc2c(c1)[I+]c1ccccc1-2` [DIPHENYLENEIODONIUM], the half-inhibitory concentration (IC50) in experiment [3] is 0.46 µM.
